From paper doi:10.1101/507434v1 (bioRxiv, 2018)
Like-named read-outs stand apart in the source and are kept apart here. Bridge positions count the residues as written; N and C are the ends. Square brackets hold non-standard residues; d marks the D form. Ends that are not written are not given here. Peptide text beside a SMILES is read from it. d2Nal = N[C@H](Cc1ccc2ccccc2c1)C(=O)O; Nle = CCCC[C@H](N)C(=O)O

Key:
[1] = Plasma and liver concentration of antiviral peptides after oral gavage in mice; format: in vivo, female mice; settings: for level at time molar at 0.5 h / level at time molar at 2 h / level at time molar at 4 h / level at time molar at 1 h / level at time molar at 2.5 h: female, mouse, po; for level at time molar at 0.5 h / level at time molar at 2 h / level at time molar at 4 h: 60 mg/kg; for level at time molar at 1 h / level at time molar at 2.5 h: 72 mg/kg
[2] = tested on: hepatitis C virus (HCV) RNA; assay: Standard solution assays of anti-hepatitis C activity; format: biochemical
[3] = tested on: rats given LPS to induce cachexia; assay: LPS; format: in vivo, rat; settings: for body weight as percent of pre-LPS baseline (Fig 1 Panel D) / food intake (Fig 1 Panel C): rats given LPS, peptide IP at 2mg/kg, 24 hours following challenge, 8/group; for oral anticachexia activity: LPS challenge, oral route of peptide administration
Lewis sarcoma rat model = assay: Lewis sarcoma rat cancer cachexia model; format: in vivo; settings: tumor-bearing rats, SC; for summary 6-Day food intake: two daily doses
[4] = tested on: orthotopic human breast cancer cell line transplant (cell line MDA-MB-231); settings: ref Gallagher et al., 2016; cited from earlier work
[5] = ref Gallagher et al., 2016, cited from earlier work; for plasma half-life: separate experiment, in vitro or in vivo not stated
[6] = ref Iusuf et al., 2008; cited from earlier work
HCV replicon = settings: cellular HCV replicon assay; ref Bradford and Cowan, 2012; cited from earlier work
[7] = Pharmacokinetics of TCMCB07 in anesthetized rats: plasma and bile levels; format: in vivo, Sprague-Dawley rats

`CC(=O)NCC(=O)NCC(=O)N[C@@H](Cc1c[nH]cn1)C(=O)N[C@H]1CC(=O)NCCCC[C@@H](C(=O)N[C@@H](C(=O)N2CCC[C@@H]2C(N)=O)C(C)C)NC(=O)[C@H](CCCCN)NC(=O)[C@H](Cc2ccccc2)NC(=O)[C@H](CCCNC(=N)N)NC(=O)[C@H](Cc2ccc(O)cc2)NC(=O)[C@@H]2CCCN2C1=O` [TCMP03] (Ac-GGHDPYRFKK[dV][dP]-NH2; lactam 4-10) showed a level at time molar at 0.5 h ([1]; liver) of 43 nM, a level at time molar at 2 h ([1]; liver) of 30 nM and a level at time molar at 4 h ([1]; liver) of 4 nM. For the same molecule, the level at time molar at 0.5 h ([1]; plasma) was 2910 nM, the level at time molar at 2 h ([1]; plasma) was 75700 nM and the level at time molar at 4 h ([1]; plasma) was 384 nM. The “enhancement of hepatic (target tissue) uptake relative to TCMP01” value ([1]; mice, oral gavage, Table 3) was 4 fold and the “solution antihepatitis activity relative to the parent peptide Metallo-drug 2-Cu” value [2] was “within a factor of two”.

With `CCCC[C@H](NC(C)=O)C(=O)N[C@H]1CC(=O)NCCCC[C@@H](C(=O)N[C@@H](C(=O)N2CCC[C@@H]2C(N)=O)C(C)C)NC(=O)[C@H](Cc2c[nH]c3ccccc23)NC(=O)[C@H](CCCNC(=N)N)NC(=O)[C@@H](Cc2ccc3ccccc3c2)NC(=O)[C@@H]2CCCN2C1=O` [TCMCB07] (Ac-[Nle]DP[d2Nal]RWK[dV][dP]-NH2; lactam 2-7) the “body weight as percent of pre-LPS baseline (Fig 1 Panel D)” value (“body weight as percent” below) [3] was “produced a significant weight gain”, the “food intake (Fig 1 Panel C)” value [3] was “stimulated appetite” and the oral anticachexia activity ([3]; rats) was “shown to have oral anticachexia activity”. The “tumor weight / tumor growth” value (Lewis sarcoma rat model; 1.5 and 3 mg/kg BW/day, data not shown) was “no effect on tumor growth”, the “summary 6-Day food intake” value (Lewis sarcoma rat model; total 1.5 mg/kg BW/day (LB07)) was “not different than Sham/saline controls” and the “summary 6-Day food intake” value (Lewis sarcoma rat model; total 3mg/kg BW/day (HB07)) was “not different than Sham/saline controls”.

In the case of “Asp-Arg-Val-Tyr-Ile-His-Pro-OH [angiotensin^1-7, reference compound]”, the oral activity [4] is given as “not orally active”, the plasma half-life [5] is given as 0.5 h and the plasma half-life [6] is given as roughly 0.5 h.

For “Ac-Nle-c[Asp-Pro-D-Nal(2′)-Arg-Trp-Lys]-β-Pro-β^3-Val-NH2 (sidechain bridge or staple) [TCMCB06]”, the “body weight as percent” value [3] was “no weight gain”.

In the case of “GGHY[dR]FK [Metallo-drug 2-Cu, reference compound]”, the oral availability ([1]; mice, oral gavage, also short circulating half-life and poor liver uptake stated) is listed as “no oral availability” and the antiviral activity (HCV replicon) is listed as “confirmed”.

Molecule `CC(=O)NCC(=O)NCC(=O)N[C@@H](Cc1c[nH]cn1)C(=O)N[C@H]1CC(=O)NCCCC[C@@H](C(=O)N[C@@H](C(=O)N2CCC[C@@H]2C(N)=O)C(C)C)NC(=O)[C@H](CCCCN)NC(=O)[C@H](Cc2ccccc2)NC(=O)[C@H](CCCNC(=N)N)NC(=O)[C@H](Cc2ccc(O)cc2)NC1=O` [TCMP01] (Ac-GGHDYRFKK[dV][dP]-NH2; lactam 4-9) has a level at time molar at 1 h ([1]; liver) of 14 nM, a level at time molar at 2.5 h ([1]; liver) of 4 nM and a level at time molar at 1 h ([1]; plasma) of 1000 nM. For the same molecule, the level at time molar at 2.5 h ([1]; plasma) was 24 nM and the “solution antihepatitis activity relative to the parent peptide Metallo-drug 2-Cu” value [2] was “within a factor of two”.

For “Ac-Nle-c(Asp-Arg-Val-Tyr-Ile-His-Pro-Lys)-D-Val-D-Pro-NH2 (sidechain bridge or staple) [TCANG05]”, the oral activity [4] is listed as “orally active”, the plasma half-life [5] is listed as 50 h and the “stability compared to angiotensin 1-7” value ([5]; using in vitro and in vivo assays) is listed as “greatly enhanced stability”.

With “Ac-Nle-c[Asp-Pro-D-Nal(2′)-Arg-Trp-Lys]-β-Pro-β^2-Val-NH2 (sidechain bridge or staple) [TCMCB05]” the “body weight as percent” value [3] was “produced a significant weight gain” and the “food intake (Fig 1 Panel C)” value [3] was “stimulated appetite”.

For “Ac-Nle-^1 c(Asp-Pro-D-Nal2’-Arg-Trp-Lys)-D-Pro-D-Val-NH2 (sidechain bridge or staple) [TCMCB02]”, the oral anticachexia activity ([3]; rats) was “no oral anticachexia activity” and the “overnight body weight gain” value ([3]; rats, parenteral peptide after parenteral LPS, end of 12 hr dark cycle, n=6) was roughly 5%.

In the case of `CCCC[C@H](NC(C)=O)C(=O)N[C@H]1CC(=O)NCCCC[C@@H](C(=O)N[C@@H](C(=O)N2CCC[C@@H]2C(N)=O)C(C)C)NC(=O)[C@H](Cc2c[nH]c3ccccc23)NC(=O)[C@H](CCCN=C(N)N)NC(=O)[C@@H](Cc2ccc3ccccc3c2)NC(=O)[C@@H]2CCCN2C1=O` [TCMCB07] (Ac-[Nle]DP[d2Nal]RWK[dV][dP]-NH2; lactam 2-7), the Tmax ([7]; Sprague-Dawley, rat, plasma, sc, 3 mg/kg) is reported as 2.5 h and the “in vivo mechanism of clearance” value ([7]; anesthetized rats, 3mg/kg SC (Fig. 3)) is reported as “hepatic blood-to-bile transport”.
